Reference: patent publication US10098895B2, “Treatment of symptoms related to neurodegenerative disorders through pharmacological dermal activation of cranial nerves” (GLIA, LLC, priority 2016, dated 2018)

What was measured:
[1] = test system: chronic ocular GVHD; assay: Example 5: second case of chronic ocular GVHD, tear film breakup time by Keratograph 5; assay type: in vivo, human
Protocol: A patient with chronic ocular GVHD complained of eye discomfort, burning, and sticking lids. […] Their first-measured tear film breakup time was 7.4 seconds, with an average breakup time of 11.39 seconds. The patient was treated with a single dose of progesterone 1% to their forehead, followed by retesting of the tear film breakup time after 30 minutes. At that time, the first-measured tear film breakup time was 21.03 seconds, with an average breakup time of 21.35 seconds. The tear meniscus height in both eyes increased over 0.6 mm following the single application of progesterone.

[2] = test system: chronic ocular GVHD; assay: Example 6: third case of chronic ocular GVHD, Tearscope examination; assay type: in vivo, human; details: progesterone 1% to forehead, single dose
Protocol: A patient with chronic ocular GVHD was examined and found to have ocular surface disease in both eyes, including filamentary keratitis. Upon examination by Tearscope there was a lack of tear film production evident in both eyes along with pronounced filaments in the left eye. They were treated with progesterone 1% to their forehead and re-examined 50 minutes later by Tearscope.

With `CC(=O)[C@H]1CC[C@H]2[C@@H]3CCC4=CC(=O)CC[C@]4(C)[C@H]3CC[C@]12C` [progesterone] the “duration of increased ocular comfort with each dose” value ([1]; progesterone twice a day to forehead) was “at least 5 hours”, the “increase in tear meniscus height in both eyes” value ([1]; single application of progesterone 1% to forehead) was “over 0.6 mm” and the “first-measured tear film breakup time” value ([1]; single dose progesterone 1% to forehead, after 30 minutes, pre-treatment 7.4 seconds) was 21.03 s. The “average tear film breakup time” value ([1]; single dose progesterone 1% to forehead, after 30 minutes, pre-treatment 11.39 seconds) was 21.35 s, the “comfort, patient-reported” value [2] was “improved comfort” and the “filaments in the left eye” value ([2]; 50 minutes later) was “flushing of the filaments in the left eye”. The “tear film production by Tearscope” value ([2]; 50 minutes later) was “production of tear film in secretions in both eyes”.
